In brackets after ≈: the same amount, converted by molar mass.
Experiments:
Solubility at various pH = type: physicochemical
Experimental: The solubility of TAC in comparison to ACT was evaluated at various pH. TAC and ACT were equally soluble at pH1 (40 mg/mL) and pH3 (25 mg/mL), while TAC was more soluble than ACT at pH5 (30 mg/mL versus 15 mg/mL) and pH7 (30 mg/mL versus 10 mg/mL). […] At pH 1, we observed a moderate hydrolysis of TAC (26%) to the mono- and diesters in the first 3 hours of incubation increasing to 60% after 6 hrs. However, after 24, 99% of TAC was hydrolyzed, including 46% to the parent compound, ACT.

[1] = Drug stability at pH 1, 3, 5 and 7.4 (LC/MS/MS); type: physicochemical; conditions: throughout the pH range, maximum stability at pH 1; data not shown
Experimental: ACT and TAC stabilities were determined after incubation at pH1 (2% Phosphoric acid), pH3 (0.1% Formic Acid), pH5 (K3PO4), and pH7.4 (Dulbecco's PBS). 100 ng of each compound was resuspended in 1.2 mL total volume, and 200 μL samples taken at 1, 3, 6, 29, and 48 hr. Each pH point was repeated 6 times in 2 dram vials with Teflon-lined screw caps at room temperature. Samples were extracted by solid-phase extraction using 100 ng decitabine as an internal standard and analyzed by tandem mass spectroscopy as described above.

[2] = LogP determination, shake-flask water/octanol; type: physicochemical; conditions: un-ionized, read-out: experimental LogP
Experimental: The OSIRIS Property Explorer software was used to generate initial cLogP values. […] The pH of the water was 2 units above the pKa of the compound, preventing ionization. The experiment was conducted using the shake-flask method, after allowing octanol and water to equilibrate for 24 hours at 25°C. The initial drug concentration in water was 0.2 mM. Tubes were rotated at a 45 degree angle for 10 minutes with a 3 second rotation. The test was performed in a constant environment of 20°C–25°C. Tubes were centrifuged at 1000 g for 10 minutes, and the octanol phase was extracted. The UV/Visible absorption spectrum was evaluated from 550 nm to 210 nm to determine the absorption maximum. The analyte concentration was determined and the LogP calculated: Log = log(concentration in octanol/concentration in water).

[3] = Pharmacokinetics and metabolism of TAC in mice; type: in vivo, C57/BL6 mice; conditions: ACT 25 mg/kg i.v., analyte ACT
Experimental: To monitor the in vivo absorption, distribution, and metabolism of TAC, a highly sensitive LC/MS/MS analytical method was developed that allows the quantitation of concentrations as low as 10 ng/mL of TAC and its metabolites. The samples were prepared by adding 200 μL of plasma to 400 μL of cold acetonitrile, vortexed, and centrifuged at 14,000 rpm for 10 minutes. The supernatant was placed into a 10 × 75 mm glass test tube and evaporated to 50 μL under nitrogen at 37°C. The residue was then diluted with 1 mL of 2% phosphoric acid and vortexed for 10 seconds at 3,000 rpm.
Solid phase extraction was conducted using a Varian Bond Elute PLEXA PCX 1 mL columns placed on a vacuum manifold. Columns were activated by adding 1 mL of MeOH followed by 1 mL H2O and 1 mL of 2% phosphoric acid. All samples were allowed to drip by gravity flow. The extraction columns were then washed sequentially with 1 mL 2% phosphoric acid, 1 mL H2O, and 1 mL MeOH/AcCN (1/1) and eluted into a 10 × 75 mm glass test tube containing 50 μL of 25% formic acid in MeOH with 2 × 600 μL of 2% NH4OH in MeOH/AcCN (1/1). The liquid was then evaporated to dryness with nitrogen at 37°C, and 100 μL of mobile phase A was added and vortexed for 10 seconds at 3,000 rpm and transferred to LC autosampler vials at 4°C.
HPLC separation was conducted on a reverse phase C18 column (Varian Pursuit C18, 3 micron particle size; 100 mm × 2.0 mm) using a Shimadzu SIL-HTc controller with dual LC-20AD pumps and DGU-20A3 degasser. The separation was achieved using a gradient of Mobile Phase A: 0.1% Formic Acid and Mobile Phase B: 0.1% Formic Acid, 90% MeOH with a flow rate of 400 μL/min at 40°C over 10 minutes. MS/MS fragmentation was performed on an Applied Biosystems API 3200 instrument with a Turbo V Ion Spray ion source and Positive ion polarity.
To evaluate the in vivo pharmacokinetic properties of TAC, C57/BL6 female mice of 20 g body weight were dosed with 38 mg/kg TAC p.o. (equimolar dose to 25 mg/kg of ACT) or 25 mg/kg ACT i.v. via tail vein injection. TAC and ACT were solubilized in 1X PBS immediately before administration and dosed at 0.01 mL/g fasted body weight. Blood samples (two time points per animal, three animals per time point) were obtained via retro-orbital bleeding with Natelson pipettes at 0.5, 1, 2, 4, 8, and 24 hours after drug administration. The collected blood was then centrifuged for 4 minutes at 13,000 g. Plasma was immediately extracted with cold acetonitrile and stored at −80°C until LC/MS/MS analysis.
Noncompartmental plasma pharmacokinetic parameters for TAC prodrug and ACT after oral TAC or i.v ACT administrations were estimated using the sparse sampling option in WinNonlin Software version 4.1 (Pharsight Corp., Mountain View, Calif, USA). Briefly, the WinNonlin sparse sampling option applies the linear trapezoidal rule for area under the concentration-time curve (AUC) calculations and generates a standard error for the mean AUC estimate that accounts for correlations in the data resulting from repeated sampling of individual mice. Parameters of interest included the AUC from time 0 to the last measurable concentration (AUClast), observed peak concentration after oral administration (Cmax), estimated peak concentration after i.v. administration (C0), mean residence time to the last measurable concentration (MRTlast), and the half-life of the terminal phase (T1/2). To assess the multiphasic decline in plasma concentrations, an alpha (T1/2α) half-life was also estimated using a log-linear regression of the mean ACT concentrations through 2 hours after dosing.

P15 promoter methylation = experiment: p15INK4B methylation status (EpiTect Methyl qPCR) in L1210 cells; type: cell-based, Mouse; conditions: 48 hours
Experimental: Mouse leukemia cells (L1210) were purchased from ATCC. The published IC50 value for ACT (0.2 uM) was first confirmed using the Promega CellTiter MTS assay. […] Genomic DNA was isolated after 48 hours using the Sigma GenElute Genomic DNA Kit, including the RNase treatment step to ensure no RNA carryover. The methylation status of p15INK4B was determined using a predesigned primer set and the EpiTect Methyl qPCR Assays MethylScreen technology (Qiagen, Frederick, Md, USA).

global DNA methylation = experiment: Global methylation detection assay in mouse tissues; type: in vivo, C57BL6 mice; set-up: unit not given here; conditions: 5 days ACT 25 mg/kg or TAC 38 mg/kg p.o., dot blot
Experimental: 24 hours following drug administration, snap-frozen mouse tissues were homogenized and genomic DNA isolated using Promega's Wizard Genomic DNA Purification Kit. 100 ng of EcoRI linearized genomic DNA was spotted onto PVDF membrane. The membrane was air-dried and repermeabilized according to manufacturer's instructions. Nonspecific binding was blocked using 5% milk in PBS-T and washed twice in PBS-T for 5 minutes. The membrane was incubated with primary antibody (1 : 1000 anti-5-methylcytosine in PBS-T, Calbiochem) for 1 hour then washed four times for five minutes each with PBS-T. The membrane was incubated with the HRP-conjugated secondary antibody for 1 hour and washed four times for five minutes each with PBS-T. Signal intensity following ECL detection was quantitated using KODAK Image Station software. Assay results were confirmed using EpiGentek's Methylamp Global DNA Methylation Quantification Kit per manufacturer's instructions.
In an in vivo experiment designed to evaluate the effect of a prolonged administration of TAC on global methylation, TAC (38 mg/kg p.o.) or ACT (25 mg/kg i.p.) diluted in PBS was administered to C57BL6 mice every 24 hours for 5 consecutive days (four animals per group). […] The positive results in gut and spleen were confirmed using the EpiGentek's Methylamp Global DNA Methylation Quantification Kit.

[4] = tested on: L1210 lymphocytic leukemia; experiment: In vivo L1210 lymphocytic leukemia model; set-up: species or system BDF1 mice
Experimental: The in vivo L1210 lymphocytic leukemia model in C57BL/6 × DBA/2 F1(BDF1) female mice was used to evaluate the in vivo antiproliferative effect of TAC. L1210 cells were carried in BDF1 mice by weekly i.p. (intraperitoneal) passages. Leukemia cells from ascites fluid were diluted appropriately in […] medium and injected i.p. (1×10^5 cells/0.1 mL/mouse) into recipient mice. A daily oral administration of TAC (38 mg/kg via oral gavage) or ACT (25 mg/kg administered i.p.) diluted in PBS was given to leukemic BDF1 mice starting 24 hours from the inoculation of L1210 cells for a total of 5 days. Compounds were prepared fresh daily. A group of untreated leukemic mice received sterile water for injections and served as controls.

L1210 cells = tested on: L1210 cells; set-up: method as in PMID 6083417; conditions: published value, confirmed by MTS assay; cited from earlier work
[5] = oral film-coated formulation, 80 mg dose, cited from earlier work
[6] = female, C57/BL6, mouse, plasma, iv
[7] = tissue 24 hours after treatment

Compound: Nc1ncn([C@@H]2O[C@H](CO)[C@@H](O)[C@H]2O)c(=O)n1 [ACT, 5-azacitidine]
- solubility (Solubility at various pH; pH 1, pH1): 40 mg/mL (≈ 164 mM)
- solubility (Solubility at various pH; pH 3, pH3): 25 mg/mL (≈ 102 mM)
- solubility (Solubility at various pH; pH 5, pH5): 15 mg/mL (≈ 61.4 mM)
- solubility (Solubility at various pH; pH 7, pH7): 10 mg/mL (≈ 40.9 mM)
- stability of azacitidine in solution [1]: significant degradation
- logP [2]: -2.32
- T1/2α ([3]; data through 2 hours): 19.2 min
- Cmax [3, 6]: 81.1 µM
- MRT last [3, 6]: 1.1 h
- C0 ([3]; female, C57/BL6, mouse, plasma, iv, estimated peak concentration): 212 µM
- half-life ([3]; female, C57/BL6, mouse, plasma, iv, terminal phase): 408 min
- AUC(0-t) ([3]; female, C57/BL6, mouse, plasma, iv, mean (standard error)): 126 µM·h
- decrease of P15 promoter methylation (P15 promoter methylation; 0.1 uM ACT): 39% (±3)
- decrease of P15 promoter methylation (P15 promoter methylation; 10 uM ACT): 49% (±17)
- densitometry of methylation level, Gut Average (global DNA methylation; four animals): 29
- densitometry of methylation level, Spleen Average (global DNA methylation; four animals): 50
- densitometry of methylation level, Gut.1 (global DNA methylation; [7]): 37
- densitometry of methylation level, Gut.2 (global DNA methylation; [7]): 14
- densitometry of methylation level, Gut.3 (global DNA methylation; [7]): 34
- densitometry of methylation level, Gut.4 (global DNA methylation; [7]): 33
- densitometry of methylation level, Spleen.1 (global DNA methylation; [7]): 54
- densitometry of methylation level, Spleen.2 (global DNA methylation; [7]): 71
- densitometry of methylation level, Spleen.3 (global DNA methylation; [7]): 48
- densitometry of methylation level, Spleen.4 (global DNA methylation; [7]): 29
- survival ([4]; azacitidine 25 mg/kg i.p. (maximum tolerated dose) daily for 5 days): 17 days
- increased lifespan ([4]; azacitidine 25 mg/kg i.p. daily for 5 days): 112%
- weight reduction ([4]; azacitidine 25 mg/kg i.p., L1210-bearing mice): 16%
- IC50 (L1210 cells): 200 nM
- bioavailability ([5]; four human subjects): 17.4%
- mean plasma half-life ([5]; human): 23.4 min

— article PMC3263612, “Development of an Oral Form of Azacytidine: 2′3′5′Triacetyl-5-Azacytidine” (Chemotherapy Research and Practice, 2011)
